Assay results: patent EP0168709A1, “Process for preparing chlorinated phosphorylmethylcarbonyl derivatives, and intermediates for their preparation” (BAYER AG, priority 1984, dated 1986)

Tests used:
Assay type in all cases: in vivo
Testpflanzen = test: Pre-emergence test, greenhouse (overall statement); details: result in words
Excerpt: (§1) Pre-emergence-Test - Gewächshaus
(§2) Lösungsmittel: 5 Gewichtsteile Aceton
(§3) Emulgator: 1 Gewichtsteil Alkylarylpolyglykolether
(§4) Zur Herstellung einer zweckmäßigen Wirkstoffzubereitung vermischt man 1 Gewichtsteil Wirkstoff mit der angegebenen Menge Lösungsmittel, gibt die angegebene Menge Emulgator zu und verdünnt das Konzentrat mit Wasser auf die gewünschte Konzentration.
(§5) Samen der Testpflanzen werden in normalen Boden ausgesät und nach 24 Stunden mit der Wirkstoffzubereitung begossen. Dabei hält man die Wassermenge pro Flächeneinheit zweckmäßigerweise konstant. Die Wirkstoffkonzentration in der Zubereitung spielt keine Rolle, entscheidend ist nur die Aufwandmenge des Wirkstoffs pro Flächeneinheit. Nach drei Wochen wird der Schädigungsgrad der Pflanzen bonitiert in % Schädigung im Vergleich zur Entwicklung der unbehandelten Kontrolle. Es bedeuten: • O % = keine Wirkung (wie unbehandelte Kontrolle) 100 % = totale Vernichtung

Sorghum halepense = test: Pre-emergence test, greenhouse; details: 0,5 kg/ha, rated after three weeks vs untreated control, 0 % = no effect, 100 % = total destruction
Excerpt: as §1, §2, §3, §4, §5

Soja-bohnen = test: Pre-emergence test, greenhouse; details: 0,5 kg/ha, rated after three weeks vs untreated control, 0 % = no effect, 100 % = total destruction
Excerpt: as §1, §2, §3, §4, §5

Baum-wolle = test: Pre-emergence test, greenhouse; details: 0,5 kg/ha, rated after three weeks vs untreated control, 0 % = no effect, 100 % = total destruction
Excerpt: as §1, §2, §3, §4, §5

## CC(C)CC(=O)C(Cl)(Cl)P(=O)(OC(C)C)OC(C)C [Beispiel 1, O,O-Di-i-propyl-(1,1-dichlor-4-methyl-2-oxo-pentan)-phosphonsäureester]
Testpflanzen
  Wirksamkeit: ausgezeichnete Wirksamkeit
Sorghum halepense
  Schädigungsgrad der Pflanzen (% Schädigung), Sorghum halepense: 100%
Soja-bohnen
  Schädigungsgrad der Pflanzen (% Schädigung), Soja-bohnen: 0%
Baum-wolle
  Schädigungsgrad der Pflanzen (% Schädigung), Baum-wolle: 0%
